Assay results taken from patent US5563052A, “Process for producing L-tryptophan” (Kyowa Hakko Kogyo Co., LTD, priority 1988, dated 1996).
Like-named read-outs stand apart in the source and are kept apart here.

Columns and labels:
Type in all cases: biochemical, Corynebacterium glutamicum
[1] = tested on: 3-deoxy-D-arabino-hepturosonate-7-phosphate synthase (DS); test: Inhibition of DS activity by phenylalanine and tyrosine; conditions: DS in the ATCC 13032 transformant carrying pCGDS1
Procedure: DS activities of Corynebacterium glutamicum ATCC 13032 and the transformant carrying pCGDS1 were determined according to the method of P. R. Sprinavasan, D. B. Sprinson, et al. [J. Biol. Chem., 234, 716 (1959)].

[2] = tested on: anthranilate phosphoribosyl transferase (PRT); test: Feedback inhibition of anthranilate phosphoribosyl transferase (PRT) activity by tryptophan; conditions: for IC50: read-out: Tryptophan concentration for 50% inhibiting the PRT activity
Procedure: (§1) AS activities of Corynebacterium glutamicum ATCC 13032 and TA108 strains carrying pCtrp1 or pCtrp57 were determined according to the method of H. Hagino, et al. [Agric. Biol. Chem., 39, 323 (1975)], and their PRT activities were determined according to the method of J. Ito and C. Yanofsky [J. Biol. Chem., 97, 734 (1969)]. AS and PRT activities of TA108 strains carrying pCtrp1 or pCtrp57 were more than 10 times as high as those of ATCC 13032 strain. Tryptophan concentrations for 50% inhibiting the AS activities of […] strain, TA108 strain carrying pCtrp1 and TA108 strain carrying pCtrp57 were 0.002 mM, 0.008 mM and 4.0 mM, respectively, while tryptophan concentrations for 50% inhibiting the PRT activities of these three strains were 0.19 mM, 0.19 mM and 4.8 mM, respectively.

[3] = tested on: anthranilate synthase (AS); test: Feedback inhibition of anthranilate synthase (AS) activity by tryptophan; conditions: for IC50: read-out: Tryptophan concentration for 50% inhibiting the AS activity
Procedure: as §1

| Structure (SMILES) | Inhibition of DS [1] | Factor by which PRT is less sensitive to tryptophan ([2]; PRT encoded by pCtrp57 compared with PRT encoded by pCtrp1) | IC50 ([2]; PRT of TA108 strain carrying pCtrp1) [µM] | IC50 ([2]; PRT of TA108 strain carrying pCtrp57) [µM] | Factor by which AS is less sensitive to tryptophan ([3]; AS encoded by pCtrp57 compared with AS encoded by pCtrp1) | IC50 ([3]; AS of TA108 strain carrying pCtrp1) [µM] | IC50 ([3]; AS of TA108 strain carrying pCtrp57) [µM] |
| --- | --- | --- | --- | --- | --- | --- | --- |
| N[C@@H](Cc1ccccc1)C(=O)O [phenylalanine] | free from inhibition | – | – | – | – | – | – |
| N[C@@H](Cc1c[nH]c2ccccc12)C(=O)O [tryptophan] | – | about 25 | 190 | 4800 | about 500 | 8 | 4000 |
| N[C@@H](Cc1ccc(O)cc1)C(=O)O [tyrosine] | free from inhibition | – | – | – | – | – | – |
